In test [1] the test system is Onchocerca gutturosa adult male worms. Put plainly: O. gutturosa adult male worm 5-day motility assay. The conditions noted are these: for activity against adult O. gutturosa: metabolites of oxfendazole, less potent compared to oxfendazole.
Test [2] deals with L. sigmodontis microfilariae. Kind of test: L. sigmodontis microfilariae-injected naïve mice. Type of test: in vivo, Litomosoides sigmodontis. As to conditions: single intraperitoneal injection 5 mg/kg. As for the experimental part: To investigate the in vivo efficacy of oxfendazole on microfilariae, microfilariae were isolated from peripheral blood of L. sigmodontis-infected cotton rats according to Chandrashekar et al. (1984) using a sucrose percoll gradient. 100,000 microfilariae were injected into the tail vein of naïve mice as previously described. Microfilariae-injected mice were treated with a commercial formulation of oxfendazole (Dolthene) twice daily with 2 x 12.5 mg/kg per os. As a positive control, additional mice were treated with a single intraperitoneal dose of ivermectin (5 mg/kg) in DMSO/PEG400/H20dest with a ratio of 1:7:2 according to Halliday et al.. Control animals received no treatment.

In test [3] the test system is Litomosoides sigmodontis. Also on record: method as in Reddy 1983 (Ref. 15). As to conditions: L3 (mite), Mastomys natalensis, patent phase, necropsy 43 days p.t., ref Reddy 1983 (Ref. 15), cited from earlier work.
The test system of test [4] is Brugia pahangi. The conditions noted are these: jirds, cited from earlier work.
The test system of test [5] is Brugia pahangi. Further details: method as in Devaney 1985 (Ref. 8). The conditions noted are these: 50L3, balb/c, SC 10 or 50 mg/kg 5 cons. days, 4 days p.i., necropsy 3-4 weeks p.t.; ref Devaney 1985 (Ref. 8); cited from earlier work.
Test [6] concerns Onchocerca lienalis microfilariae. Kind of test: O. lienalis microfilariae 5-day motility assay. As to conditions: 120 h.
The test system of test [7] is Brugia pahangi. The conditions noted are these: L3, cats, patent phase, necropsy 42 days p.t., ref Denham 1980 (Ref. 5), cited from earlier work.
Test [8] deals with Brugia pahangi. Further details: method as in Reddy 1983 (Ref. 15). As to conditions: L3 (SC), Mastomys natalensis, patent phase, necropsy 43 days p.t., ref Reddy 1983 (Ref. 15), cited from earlier work.
Test [9] relates to Onchocerca gutturosa adult male worms. Kind of test: O. gutturosa adult worm MTT/formazan viability assay. The conditions noted are these: 120 h.
The subject of a further test is Breinlia booliati. Also on record: method as in Mak 1981 (Ref. 7). The conditions noted are these: 100L3 (SC), rats, SC 10mg/kg 5 cons. days, patent phase, necropsy 4 weeks p.t.; ref Mak 1981 (Ref. 7); cited from earlier work.
Test [10] relates to Litomosoides sigmodontis. Also on record: method as in Shibuya 1979 (Ref. 12). The conditions noted are these: cotton rat, ref Shibuya 1979 (Ref. 12), cited from earlier work.

Where two headings read alike, the source gives them in different places.

With `COC(=O)Nc1nc2ccc(S(=O)(=O)c3ccccc3)cc2[nH]1` [fenbendazole sulfone], the “activity against adult O. gutturosa” value in test [1] was “active”.
As for ivermectin, the microfilaremia result is given as “statistically significant reduction of microfilaremia” in test [2] (by 6 h after treatment) and “microfilariae negative” in [2] (from day four after treatment until end of experiment).
In the case of `CCCSc1ccc2nc(NC(=O)OC)[nH]c2c1` [albendazole], the “Reduction of worm burden” value is 100% in the test on Litomosoides sigmodontis [3] (SC 100mg/kg 5 cons. days); 0% in the test on Litomosoides sigmodontis [3] (per os 150mg/kg 5 cons. days); 100% with Brugia pahangi [4] (15Ad (IP), SC 50mg/kg 5 cons. days, necropsy 4-5 weeks p.t., ref Denham 1980 (Ref. 5)); 80-90% with Brugia pahangi [4] (15Ad (IP), SC 25-12.5mg/kg 5 cons. days, necropsy 4-5 weeks p.t., ref Denham 1980 (Ref. 5)); 100% in the test on Brugia pahangi [4] (15Ad (IP), SC 50-25mg/kg 5 cons. days, 4 days p.i., necropsy 5 weeks p.t., ref Surin 1990 (Ref. 11)); less than 30% in the test with Brugia pahangi [4] (15Ad (IP), SC <6,25mg/kg 5 cons. days, necropsy 4-5 weeks p.t., ref Denham 1980 (Ref. 5)). Besides, the “Reduction of worm burden” value with Brugia pahangi [4] (50L3 (IP), SC 50-25mg/kg 5 cons. days, 70 days p.i., necropsy 5 weeks p.t., ref Surin 1990 (Ref. 11)) was 90%; in the test with Brugia pahangi [5], 100%; in the test with Brugia pahangi [7] (SC 25mg/kg 5 cons. days) it was 50%; in the test with Brugia pahangi [7] (SC 50mg/kg 5 cons. days) it was 100%; with Brugia pahangi [7] (SC 100mg/kg 5 cons. days), 100%; in the test on Brugia pahangi [8] (SC 100mg/kg 5 cons. days), 100%. Besides, the “Reduction of worm burden” value in the test with Brugia pahangi [8] (per os 150mg/kg 5 cons. days) is listed as 50%. Also, the “Motility Reduction (%)” value came out at 10% in test [1] (1.25 x 10^-5 M, 24 h); 12% in [1] (1.25 x 10^-5 M, 48 h); 27% in [1] (1.25 x 10^-5 M, 72 h); 38% in test [1] (1.25 x 10^-5 M, 96 h); 40% in [1] (1.25 x 10^-5 M, 120 h); 10% in [1] (3.1 x 10^-6 M, 24 h). Further, the “Motility Reduction (%)” value in test [1] (3.1 x 10^-6 M, 48 h) worked out at 5%; in test [1] (3.1 x 10^-6 M, 72 h), 16%; in test [1] (3.1 x 10^-6 M, 96 h), 26%; in [1] (3.1 x 10^-6 M, 120 h), 40%; in [1] (5.0 x 10^-5 M, 24 h), 10%; in test [1] (5.0 x 10^-5 M, 48 h), 12%. Further, the “Motility Reduction (%)” value stood at 29% in test [1] (5.0 x 10^-5 M, 72 h); 40% in [1] (5.0 x 10^-5 M, 96 h); 47% in test [1] (5.0 x 10^-5 M, 120 h); 10% in test [1] (7.8 x 10^-7 M, 24 h); 9% in [1] (7.8 x 10^-7 M, 48 h); 13% in [1] (7.8 x 10^-7 M, 72 h). For the same compound, the “Motility Reduction (%)” value is on record as 33% in test [1] (7.8 x 10^-7 M, 96 h) and 33% in [1] (7.8 x 10^-7 M, 120 h). Further, the “activity against microfilariae compared to oxfendazole” value in test [6] is reported as “even less active”. Also, the “MTT Reduction (%)” value worked out at 28% in [9] (1.25 x 10^-5 M), 19% in test [9] (3.1 x 10^-6 M), 47% in test [9] (5.0 x 10^-5 M) and 18% in test [9] (7.8 x 10^-7 M).
As to `COC(=O)Nc1nc2ccc(C(=O)c3ccccc3)cc2[nH]1` [meb, mebendazole], the “Reduction of worm burden” value with Litomosoides sigmodontis [3] (SC 100mg/kg 5 cons. days) is 100%; with Litomosoides sigmodontis [3] (per os 150mg/kg 5 cons. days), 70%; in the test on Brugia pahangi [4] (15Ad (IP), SC 25-12,5mg/kg 5 cons. days, 4 days p.i., necropsy 5 weeks p.t., ref Surin 1990 (Ref. 11)), 100%; with Brugia pahangi [4] (50L3 (IP), SC 25mg/kg 5 cons. days, 70 days p.i., necropsy 5 weeks p.t., ref Surin 1990 (Ref. 11)), 97%; in the test on Brugia pahangi [4] (50L3 (IP), SC 12,5mg/kg 5 cons. days, 70 days p.i., necropsy 5 weeks p.t., ref Surin 1990 (Ref. 11)) it was 78.5%; in the test with Brugia pahangi [4] (100L3 (IP), SC 50mg/kg 5 cons.days, 3 months p.i., necropsy 15 days p.t., ref Denham 1978 (Ref. 3)) it was 70%. Besides, the “Reduction of worm burden” value in the test on Brugia pahangi [4] (100L3 (IP), SC 50mg/kg 5 cons.days, 3 months p.i., necropsy 20 days p.t., ref Denham 1978 (Ref. 3)) is recorded as 100%; in the test with Brugia pahangi [4] (100L3 (IP), SC 50mg/kg 5 cons.days, 3 months p.i., necropsy 30 days p.t., ref Denham 1978 (Ref. 3)) it was 100%; with Brugia pahangi [8] (SC 100mg/kg 5 cons. days), 100%; in the test on Brugia pahangi [8] (per os 150mg/kg 5 cons. days), 0%; in the test with Breinlia booliati it was 83%; in the test with Litomosoides sigmodontis [10] (IP 1mg/kg 3 cons.days, patent phase, necropsy 4 weeks p.t.), 50%. In addition, the “Reduction of worm burden” value in the test on Litomosoides sigmodontis [10] (IP 10mg/kg 3 cons.days, patent phase, necropsy 4 weeks p.t.) is listed as 100%; with Litomosoides sigmodontis [10] (IP 100mg/kg x1, patent phase, necropsy 4 weeks p.t.), 100%; in the test with Litomosoides sigmodontis [10] (IT 0.1mg/kg 3 cons.days, patent phase, necropsy 5 weeks p.t.) it was 0%; in the test with Litomosoides sigmodontis [10] (IT 1mg/kg 3 cons.days, patent phase, necropsy 5 weeks p.t.), 100%; with Litomosoides sigmodontis [10] (IT 10mg/kg 3 cons.days, patent phase, necropsy 3 weeks p.t.), 20%; with Litomosoides sigmodontis [10] (IT 10mg/kg 3 cons.days, patent phase, necropsy 5 weeks p.t.), 100%. The “Reduction of worm burden” value is on record as 0% with Litomosoides sigmodontis [10] (IT 10mg/kg 4 cons.days, patent phase, necropsy 4 weeks p.t.); 75% in the test with Litomosoides sigmodontis [10] (IT 25mg/kg x1, patent phase, necropsy 5 weeks p.t.); 85% with Litomosoides sigmodontis [10] (IT 100mg/kg x1, patent phase, necropsy 5 weeks p.t.).
Consider `COC(=O)Nc1nc2ccc(Sc3ccccc3)cc2[nH]1` [fenbendazole], for which the “activity against adult O. gutturosa” value in test [1] is given as “active”.
`Cl.Cl.NCCS[As](SCCN)c1ccc(Nc2nc(N)nc(N)n2)cc1` [Immiticide, melarsomine dihydrochloride]: the “Motility Reduction (%)” value in [1] (1.25 x 10^-5 M, 48 h) was found to be 100%; in [1] (1.25 x 10^-5 M, 72 h) it was 100%; in [1] (1.25 x 10^-5 M, 96 h) it was 100%; in [1] (1.25 x 10^-5 M, 120 h), 100%; in [1] (1.9 x 10^-7 M, 24 h), 4%; in test [1] (1.9 x 10^-7 M, 48 h), 9%. The “Motility Reduction (%)” value in [1] (1.9 x 10^-7 M, 72 h) turned out to be 33%; in test [1] (1.9 x 10^-7 M, 96 h) it was 44%; in test [1] (1.9 x 10^-7 M, 120 h), 44%; in [1] (3.1 x 10^-6 M, 48 h) it was 100%; in test [1] (3.1 x 10^-6 M, 72 h), 100%; in test [1] (3.1 x 10^-6 M, 96 h), 100%. Also, the “Motility Reduction (%)” value in test [1] (3.1 x 10^-6 M, 120 h) worked out at 100%; in [1] (7.8 x 10^-7 M, 24 h), 49%; in test [1] (7.8 x 10^-7 M, 48 h), 74%; in test [1] (7.8 x 10^-7 M, 72 h) it was 93%; in [1] (7.8 x 10^-7 M, 120 h), 100%. The “effect on microfilariae motility” value in [6] (concentrations equal or above 3.1·10^−6 M) is reported as “completely inhibited microfilariae motility”. Also, the “MTT Reduction (%)” value is listed as 91% in test [9] (1.25 x 10^-5 M), 51% in test [9] (1.9 x 10^-7 M), 94% in test [9] (3.1 x 10^-6 M) and 79% in test [9] (7.8 x 10^-7 M).

The record behind these values is paper PMC7365463, “Oxfendazole mediates macrofilaricidal efficacy against the filarial nematode Litomosoides sigmodontis in vivo and inhibits Onchocerca spec. motility in vitro” (PLoS Neglected Tropical Diseases, 2020).
